Experimental data published in US12655116B2, “Substituted isophthalic acid diamides” (Bayer Aktiengesellschaft, priority 2020, dated 2026).

Key:
ALOMY [1] = assay: Pre-emergence herbicidal action against ALOMY; format: in vivo, Alopecurus myosuroides
Method in brief: (§1)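 Seeds sown in sandy loam, soil-covered; compound sprayed on soil surface pre-emergence. Application: WP/EC, 600–800 l/ha, 0.2% wetting agent. Readout: visual % damage at 3 weeks.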

AVEFA = assay: Pre-emergence herbicidal action against AVEFA; format: in vivo, Avena fatua
Method in brief: as §1

VERPE [2] = assay: Post-emergence herbicidal action against VERPE; format: in vivo, Veronica persica; conditions: 20 g/ha
Method in brief: (§2)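 Sandy loam, greenhouse; treatment 2–3 weeks after sowing, one-leaf stage. Aqueous suspension or emulsion from WP/EC sprayed on foliage (600–800 l/ha, 0.2% wetting agent). Readout: visual % action, ~3 weeks.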

ECHCG [3] = assay: Pre-emergence herbicidal action against ECHCG; format: in vivo, Echinochloa crus-galli
Method in brief: as §1

MATIN [4] = assay: Pre-emergence herbicidal action against MATIN; format: in vivo, Matricaria inodora
Method in brief: as §1

ALOMY [5] = assay: Post-emergence herbicidal action against ALOMY; format: in vivo, Alopecurus myosuroides; conditions: visual assessment about 3 weeks after treatment vs untreated controls
Method in brief: as §2

SETVI [6] = assay: Post-emergence herbicidal action against SETVI; format: in vivo, Setaria viridis; conditions: dosage 20 g/ha
Method in brief: as §2

POLCO = assay: Pre-emergence herbicidal action against POLCO; format: in vivo, Polygonum convolvulus
Method in brief: as §1

AMARE [7] = assay: Post-emergence herbicidal action against AMARE; format: in vivo, Amaranthus retroflexus; conditions: 20 g/ha, visual assessment about 3 weeks after treatment, 100% = plants have died, 0% = like control plants
Method in brief: as §2

PHBPU [8] = assay: Pre-emergence herbicidal action against PHBPU; format: in vivo, Pharbitis purpurea; conditions: dosage 80 g/ha
Method in brief: as §1

PHBPU [9] = assay: Post-emergence herbicidal action against PHBPU; format: in vivo, Pharbitis purpurea
Method in brief: as §2

ABUTH [10] = assay: Post-emergence herbicidal action against ABUTH; format: in vivo, Abutilon theophrasti; conditions: visual assessment about 3 weeks after treatment vs untreated controls
Method in brief: as §2

ABUTH [11] = assay: Pre-emergence herbicidal action against ABUTH; format: in vivo, Abutilon theophrasti
Method in brief: as §1

VIOTR [12] = assay: Post-emergence herbicidal action against VIOTR; format: in vivo, Viola tricolor
Method in brief: as §2

ECHCG [13] = assay: Post-emergence herbicidal action against ECHCG; format: in vivo, Echinochloa crus-galli
Method in brief: as §2

VIOTR [14] = assay: Pre-emergence herbicidal action against VIOTR; format: in vivo, Viola tricolor
Method in brief: as §1

AMARE [15] = assay: Pre-emergence herbicidal action against AMARE; format: in vivo, Amaranthus retroflexus
Method in brief: as §1

MATIN [16] = assay: Post-emergence herbicidal action against MATIN; format: in vivo, Matricaria inodora; conditions: dosage 20 g/ha
Method in brief: as §2

SETVI [17] = assay: Pre-emergence herbicidal action against SETVI; format: in vivo, Setaria viridis; conditions: dosage 80 g/ha
Method in brief: as §1

VERPE [18] = assay: Pre-emergence herbicidal action against VERPE; format: in vivo, Veronica persica
Method in brief: as §1

[19] = 20 g/ha, scored visually after 3 weeks, 100% = plants have died, 0% = like control plants
[20] = 80 g/ha, scored visually after 3 weeks vs untreated controls (100% = plants have died, 0% = like control plants)

CCc1c(C(=O)Nc2nnnn2C)ccc(C(F)(F)F)c1C(=O)NCC1CC1 [Example 1-274]
80%: Pre-emergence action against ALOMY (ALOMY [1]; [19]) | Pre-emergence action against AVEFA (AVEFA; [19]) | Post-emergence action against VERPE in % (VERPE [2]) | Post-emergence action against ALOMY in % (ALOMY [5]; dosage 20 g/ha) | Pre-emergence action against POLCO in % (POLCO; dosage 20 g/ha) | Post-emergence action against PHBPU in % (PHBPU [9]; dosage 5 g/ha) | Post-emergence action against ABUTH in % (ABUTH [10]; dosage 20 g/ha) | Post-emergence action against VIOTR in % (VIOTR [12]; 20 g/ha) | Post-emergence action against ECHCG in % (ECHCG [13]; dosage 5 g/ha) | Post-emergence action against MATIN in % (MATIN [16])
90%: Pre-emergence action against ALOMY (herbicidal activity) (ALOMY [1]; 80 g/ha, pre-emergence, scored visually after 3 weeks vs untreated controls (100% = plants have died, 0% = like control plants)) | Pre-emergence action against AVEFA in % (AVEFA; 80 g/ha, pre-emergence) | Post-emergence action against SETVI in % (SETVI [6]) | Pre-emergence action against POLCO in % (POLCO; dosage 80 g/ha) | Pre-emergence action against PHBPU in % (PHBPU [8]) | Post-emergence action against PHBPU in % (PHBPU [9]; dosage 20 g/ha) | Post-emergence action against ECHCG in % (ECHCG [13]; dosage 20 g/ha) | Pre-emergence action against VIOTR in % (VIOTR [14]; dosage 20 g/ha) | Pre-emergence action against VIOTR in % (VIOTR [14]; dosage 80 g/ha) | Pre-emergence action against VERPE in % (VERPE [18]; dosage 20 g/ha) | Pre-emergence action against VERPE in % (VERPE [18]; dosage 80 g/ha)
100%: Pre-emergence action against ECHCG in % (ECHCG [3]; 80 g/ha) | Pre-emergence action against MATIN in % (MATIN [4]; dosage 20 g/ha) | Pre-emergence action against MATIN in % (MATIN [4]; dosage 80 g/ha) | Post-emergence action at 20 g/ha against AMARE in % (AMARE [7]) | Pre-emergence action against ABUTH (herbicidal activity) (ABUTH [11]; [20]) | Pre-emergence action against ABUTH (herbicidal activity in percent) (ABUTH [11]; dosage 20 g/ha, scored visually after 3 weeks vs untreated controls, 100% = plants have died, 0% = like control plants) | Pre-emergence action against AMARE in % (AMARE [15]; 20 g/ha, scored visually after 3 weeks vs untreated controls, 100% = plants have died, 0% = like control plants) | Pre-emergence action against AMARE in % (AMARE [15]; [20]) | Pre-emergence action against SETVI in % (SETVI [17])

CCCNC(=O)c1c(C(F)F)ccc(C(=O)Nc2nnnn2CC)c1C [Example 2-344]
90%: pest or weed control at 20 g/ha (ECHCG [3]; Echinochloa crus-galli, 504 h, 20 g/ha) | pest or weed control at 20 g/ha (ALOMY [5]; Alopecurus myosuroides, 504 h, dosage 20 g/ha) | pest or weed control at 80 g/ha (POLCO; Fallopia convolvulus, 504 h, dosage 80 g/ha) | pest or weed control at 80 g/ha (PHBPU [8]; Ipomoea purpurea, 504 h) | pest or weed control at 5 g/ha (ABUTH [10]; Abutilon theophrasti, 504 h, dosage 5 g/ha) | pest or weed control at 20 g/ha (ABUTH [10]; Abutilon theophrasti, 504 h, dosage 20 g/ha) | pest or weed control at 5 g/ha (VIOTR [12]; Viola tricolor, 504 h, 5 g/ha) | pest or weed control at 20 g/ha (ECHCG [13]; Echinochloa crus-galli, 504 h, dosage 20 g/ha)
80%: pest or weed control at 20 g/ha (ALOMY [1]; Alopecurus myosuroides, pre-emergence, 504 h, 20 g/ha, scored visually after 3 weeks, 100% = plants have died, 0% = like control plants) | pest or weed control at 80 g/ha (AVEFA; Avena fatua, 504 h, 80 g/ha, pre-emergence) | pest or weed control at 20 g/ha (VERPE [2]; Veronica persica, 504 h) | pest or weed control at 5 g/ha (ALOMY [5]; Alopecurus myosuroides, 504 h, dosage 5 g/ha) | pest or weed control at 20 g/ha (SETVI [6]; Setaria viridis, 504 h) | pest or weed control at 20 g/ha (PHBPU [9]; Ipomoea purpurea, 504 h, dosage 20 g/ha) | pest or weed control at 5 g/ha (ECHCG [13]; Echinochloa crus-galli, 504 h, dosage 5 g/ha) | pest or weed control at 20 g/ha (VIOTR [14]; Viola tricolor, 504 h, dosage 20 g/ha) | pest or weed control at 20 g/ha (MATIN [16]; Tripleurospermum inodorum, 504 h) | pest or weed control at 80 g/ha (SETVI [17]; Setaria viridis, 504 h) | pest or weed control at 80 g/ha (VERPE [18]; Veronica persica, 504 h, dosage 80 g/ha)
100%: pest or weed control at 80 g/ha (ALOMY [1]; Alopecurus myosuroides, 504 h, 80 g/ha, pre-emergence, scored visually after 3 weeks vs untreated controls (100% = plants have died, 0% = like control plants)) | pest or weed control at 80 g/ha (ECHCG [3]; Echinochloa crus-galli, 504 h, 80 g/ha) | pest or weed control at 20 g/ha (MATIN [4]; Tripleurospermum inodorum, 504 h, dosage 20 g/ha) | pest or weed control at 80 g/ha (MATIN [4]; Tripleurospermum inodorum, 504 h, dosage 80 g/ha) | pest or weed control at 20 g/ha (AMARE [7]; Amaranthus retroflexus, 504 h) | pest or weed control at 80 g/ha (ABUTH [11]; Abutilon theophrasti, 504 h, 80 g/ha, scored visually after 3 weeks vs untreated controls (100% = plants have died, 0% = like control plants)) | pest or weed control at 20 g/ha (ABUTH [11]; Abutilon theophrasti, 504 h, dosage 20 g/ha, scored visually after 3 weeks vs untreated controls, 100% = plants have died, 0% = like control plants, read-out: Pre-emergence action against ABUTH (herbicidal activity in percent)) | pest or weed control at 20 g/ha (VIOTR [12]; Viola tricolor, 504 h, 20 g/ha) | pest or weed control at 80 g/ha (VIOTR [14]; Viola tricolor, 504 h, dosage 80 g/ha) | pest or weed control at 20 g/ha (AMARE [15]; Amaranthus retroflexus, 504 h, 20 g/ha, scored visually after 3 weeks vs untreated controls, 100% = plants have died, 0% = like control plants) | pest or weed control at 80 g/ha (AMARE [15]; Amaranthus retroflexus, 504 h, 80 g/ha, scored visually after 3 weeks vs untreated controls, 100% = plants have died, 0% = like control plants)
